# Experimental data reported in patent US11020457B2, “Compositions and methods for protecting the kidney from ischemia reperfusion injury” (University of Virginia Patent Foundation, priority 2013, dated 2021).
# “Also recorded” adds a separate entry of the source.
# Assays:
# [1] = test system: hepcidin knockout mice (HAMP−/−); assay: Mild renal IRI in HAMP-/- mice: kidney H-Ferritin and apoptosis (Caspase-3, Bcl-2, TUNEL); assay type: in vivo; settings: for kidney Caspase-3 expression: HAMP-/- IRI Vs HAMP-/- Hepcidin-IRI, p<0.007, FIG. 7c; for TUNEL-positive cells in the kidney: hepcidin treated HAMP-/- IRI vs HAMP-/- IRI, FIG. 7g; for kidney H-Ferritin levels: hepcidin treated HAMP-/- IRI vs untreated p<0.05, lower than sham p<0.005, FIG. 7a-b
# Protocol: (§1) All experiments were performed in accordance with the National Institutes of Health and Institutional Animal Care and Use Guidelines. The Animal Care and Use Committee of the University of Virginia approved all procedures and protocols. C57BL/6 mice from the Jackson Laboratory and hepcidin knockout mice (HAMP−/−), a kind gift from Dr Cindy Roy (John Hopkins University) were used in this study. All experiments were performed on 8-10 weeks old male mice. Kidney ischemia-reperfusion surgery was performed as previously reported (44). The core temperature of the mice was maintained between 34° C. and 36° C. using a heating pad. After anesthetizing the mice (ketamine, 12 mg/ml; atropine, 0.48 mg/ml; xylazine, 24 mg/ml; […] mixture administered per 20 g body weight), bilateral flank incisions were made, both renal pedicles were exposed, and cross-clamped for 26 minutes (severe I/R injury) or 24 minutes (mild I/R injury). After the determined ischemia, clamps were removed, and kidneys were allowed to reperfuse for 24 hours. Ambient postoperative air temperature was maintained between 30° C. and 32° C. until mice had fully recovered. Sham-operated animals underwent bilateral flank incisions without clamping of renal pedicles. Twenty-four hours later, mice were euthanized, and tissues were harvested.
# (§2) Apoptotic cells in the kidney were detected by TUNEL assay following the manufacturer's protocol (Roche Diagnostics, Mannheim, Germany). Briefly, PLP-fixed kidney sections were immersed in 3% hydrogen peroxide-methanol (10 minutes) and permeabilized with cold 0.1% Triton-X100 and 0.1% […] (2 minutes). DNA fragments in apoptotic cells were then labeled and identified by terminal transferase dUTP conjugated to fluorescein (Roche Diagnostics) for 60 minutes at room temperature in dark. The apoptotic cells were imaged using a Zeiss Axiovert 200 microscope with Apo Tome (Zeiss).
# Snap frozen tissue sections were homogenized in Tris-Triton tissue lysis buffer containing complete protease inhibitor cocktail using a Dounce Homogenizer. Membrane fractions were isolated from the whole kidney lysate using membrane isolation kit (Thermo Pierce) to determine ferroportin expression. H-Ferritin was measured in the whole kidney and spleen lysates. Protein content in the homogenate was estimated using the BCA protein estimation kit. Twenty to thirty microgram of protein per sample were loaded on a 10% NuPage Bis-Tris gel under reducing conditions. The resolved proteins were transferred onto a Nitrocellulose membrane (Licor Bioscience) and probed with goat anti-mouse H-Ferritin (Santa Cruz) and rabbit anti-mouse ferroportin (Novus Biologics) antibodies. The primary antibodies were detected with Donkey anti-goat Alexa 800 and goat anti-rabbit Alexa 800 antibodies (LiCor Bioscience). Mouse monoclonal GAPDH and β-Actin (Abcam) were used as the loading controls and detected using Donkey anti Mouse Alexa 680 antibody (LiCor Bioscience). Quantitation of data was performed using densitometry software (Licor Bioscience).
# (§3) For RNA isolation, frozen tissues were re-suspended in RLT buffer (Qiagen Inc, Valencia, Calif.) and homogenized using TissueLyser system (Qiagen Inc, Valencia, Calif.). Total RNA from tissue homogenate was purified using RNAeasy mini kit (Qiagen Inc, Valencia, Calif.) following manufacturers instructions. 1 μg of RNA was used to synthesize cDNA using the iScript cDNA synthesis kit (Bio-Rad). The cDNA template was mixed with iTAQ SYBR green universal super mix (Bio-Rad) and quantitative PCR was carried out on CFX Connect system (Bio-Rad). Predesigned primers for Caspase-3 and Bcl-2 were purchased from Bio-rad. Glyceraldehyde-3-phosphate dehydrogenase (GAPDH) was amplified in parallel and used as the reference gene in quantification. Data is expressed as the relative gene expression and was calculated using the 2 (−ρρC(T)) method.
# WT mice injected with hepcidin had higher levels of H-Ferritin and less apoptotic kidney injury. […]
# [2] = Proteinuria (data not shown); assay type: in vivo
# [3] = test system: iron loaded bone marrow macrophages; settings: hepcidin pretreatment; cited from earlier work
# [4] = test system: hepcidin knockout mice (HAMP−/−); assay: Renal IRI in HAMP-/- mice: serum IL-6 by ELISA; assay type: in vivo; settings: HAMP-/- IRI Vs HAMP-/- Hepcidin-IRI, p<0.05; FIG. 10b
# Protocol: as §1, with “Twenty-four hours later, mice were euthanized, and tissues were harvested.” left out
# (§4) Serum iron (Abcam), hepcidin (Intrinsic Lifescience) and IL-6 levels (eBioscience) were measured using commercial ELISA kits, as per manufacturers instructions.
# [5] = test system: hepcidin knockout mice (HAMP−/−); assay: Mild renal IRI in HAMP-/- mice: serum iron and tissue non-heme iron; assay type: in vivo; settings: for serum iron / liver non-heme iron content: HAMP-/- hepcidin-IRI vs untreated IRI p<0.005, vs sham p<0.0005; for serum iron: FIG. 6e; for liver non-heme iron content: FIG. 6f
# Protocol: as §1, §4
# Non-heme iron content in tissue was measured using the method described in published literature with slight modifications (60). Briefly, tissues were accurately weighed, finely cut and placed for 20 hours at 65° C. in a solution of 3M HCl/0.61 M trichloroacetic acid. After cooling to room temperature, the acid extract was spun at 12,000 rpm to collect the supernatant. 0.1 mL of the supernatant was incubated with chromogen solution (1.86 mM bathophenanthroline sulfonate/143 mM thioglycollic acid) for 20 minutes, and OD was measured at 535 nm. A standard curve was generated using an iron standard solution (Ricca Iron AA standard) against water as the blank. Non-heme iron content (μg/g) was calculated using the equation described (60).
# We measured the serum iron and non-heme iron content in the kidney, spleen and liver of sham, untreated and hepcidin injected HAMP^−/− mice after IRI.
# C57BL/6 mice = assay: Renal IRI in WT mice: kidney apoptosis (Caspase-3, Bcl-2 real time PCR, TUNEL); assay type: in vivo; settings: for TUNEL reactivity in kidney: 26 minutes ischemia, 24 hours reperfusion, FIG. 3e-f; for kidney Caspase-3 expression: hepcidin before IRI, vs IRI p<0.005, vs sham p<0.03, FIG. 3a; for kidney Bcl2 expression: hepcidin-IRI vs untreated IRI, p<0.0008, FIG. 3b
# Protocol: as §1
# Animals were divided into three groups, injected intraperitoneally with water and underwent IRI (IRI), injected intraperitoneally with 50-100 μg hepcidin at different time points prior to IRI (Hepcidin-IRI) or were sham operated (Sham). The experimental design is depicted in FIG. 2a.
# as §2, §3
substance,measurement,setting,value
Mouse hepcidin 25 (DTNFPICIFCCKCCNNSQCGICCKT; listed as Mus musculus),kidney Bcl-2 expression,"[1]; HAMP-/- Hepcidin-IRI Vs HAMP-/- IRI, p<0.005, FIG. 7d",prevented the decrease in Bcl-2 expression; also recorded: higher level of anti apoptotic Bcl2
same,kidney Caspase-3 expression,[1],lower transcriptional activation of pro apoptotic Caspase3
same,kidney Caspase-3 expression,[1]; listed as hepcidin,almost completely prevented
same,TUNEL-positive cells in the kidney,[1],markedly reduced
same,TUNEL-positive cells in the kidney,[1]; listed as hepcidin,significantly fewer TUNEL-positive cells
same,kidney H-Ferritin levels,[1],significantly higher H ferritin levels
same,kidney H-Ferritin levels,[1]; listed as hepcidin,significantly higher than in untreated
same,proteinuria,[2],reducing proteinuria
same,LPS-induced IL-6 and TNF alpha production,[3],reduced LPS-induced IL-6 and TNF alpha production
same,serum IL-6 levels,[4],prevented IRI-induced increase in IL-6 levels; also recorded: significantly reduced serum IL6 compared to untreated
same,serum iron,[5],significantly reduced serum iron
same,serum iron,[5]; listed as hepcidin,significantly lowered serum iron
same,liver non-heme iron content,[5],significantly higher non-heme iron
same,liver non-heme iron content,[5]; listed as hepcidin,significantly higher than the untreated
same,splenic iron content by Prussian blue staining,[5]; hepcidin-treated HAMP-/- mice,qualitative increases in splenic iron content
same,non-heme iron content of the spleen and kidneys,"[5]; sham, untreated and hepcidin injected HAMP-/- mice after IRI (data not shown)",could not detect quantitative differences
same,TUNEL reactivity in kidney,C57BL/6 mice,reduced by Hepcidin pretreatment
same,TUNEL reactivity in kidney,C57BL/6 mice; listed as hepcidin,remarkably fewer TUNEL-positive tubules
same,kidney Caspase-3 expression,C57BL/6 mice,significantly reduced IRI-induced Caspase-3 expression; also recorded: lower transcriptional activation of pro apoptotic Caspase3
same,kidney Caspase-3 expression,C57BL/6 mice; listed as hepcidin,even lower than the sham mice
same,kidney Bcl2 expression,C57BL/6 mice,better preservation of anti apoptotic Bcl2
same,kidney Bcl2 expression,C57BL/6 mice; listed as hepcidin,significantly higher expression of Bcl2 compared to untreated IRI mice
